Data taken from PubChem BioAssay AID1259246 (Broad Institute, 2017).
Values joined by “and” are separate entries in the source; they are usually repeats but may differ in a detail not shown here. Equal entries are not always repeated. Results filed as inconclusive are left out. Active and inactive are the calls of the source.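 How the source made its calls: active means valid dose-response fit whose half-maximal growth-inhibiting concentration is at or below a set limit above the top tested dose; inconclusive means flat fit with effect between 30 and 70%, or poor fit; inactive means half-maximal concentration above a set limit.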

system: Clostridioides difficile clinical isolate growth, OD600, 24 h; test: antibacterial activity against Clostridioides difficile – 10-point retest, dose response (AID 1259246)

SMILES	IC50
CO[C@@H](CN(C)C(=O)C1CCOCC1)[C@@H](C)CN(C(=O)Nc1ccc(C(F)(F)F)cc1)[C@H](C)CO	4.1 µM
CO[C@@H](CN(C)S(=O)(=O)c1cn(C)cn1)[C@@H](C)CN(C(=O)Nc1ccc(C(F)(F)F)cc1)[C@H](C)CO	24.7 µM
C[C@H]1CN([C@@H](C)CO)C(=O)Cc2cc(NC(=O)Nc3ccc(C(F)(F)F)cc3)ccc2O[C@H]1CN(C)Cc1ccncc1	7.49 µM
COc1ccc(S(=O)(=O)Nc2ccc3c(c2)C(=O)N([C@@H](C)CO)C[C@H](C)[C@@H](CN(C)Cc2ccc4c(c2)OCO4)OCCCC[C@@H](C)O3)cc1	12 µM
C[C@@H]1CN([C@@H](C)CO)C(=O)c2cccc(NC(=O)Nc3ccc(F)cc3)c2O[C@@H]1CN(C)Cc1ccc(-c2ccccc2)cc1	4.56 µM and 1.71 µM and 1.93 µM
C[C@@H]1CCCCO[C@@H](CN(C)CC2CCCCC2)[C@@H](C)CN([C@@H](C)CO)C(=O)c2cc(NC(=O)Nc3ccc(C(F)(F)F)cc3)ccc2O1	50.2 µM and 17.8 µM
CO[C@H]1CN(C)C(=O)c2cc(NC(=O)Nc3ccc(Cl)c(Cl)c3)ccc2OC[C@@H](C)NC[C@@H]1C	14.5 µM and 17.6 µM
C[C@@H]1CN([C@H](C)CO)C(=O)Cc2cc(NC(=O)CCCN(C)C)ccc2O[C@H]1CN(C)Cc1ccc(-c2ccccc2)cc1	74.7 µM and 48 µM
Cc1ccc(S(=O)(=O)Nc2ccc3c(c2)C(=O)N([C@@H](C)CO)C[C@H](C)[C@@H](CN(C)Cc2ccc4c(c2)OCO4)OCCCC[C@@H](C)O3)cc1	17.6 µM
CO[C@H]1CN(C)C(=O)c2ccc(NC(=O)Nc3cc(Cl)cc(Cl)c3)cc2OC[C@H](C)NC[C@H]1C	25.6 µM and 69.2 µM
COc1ccc(S(=O)(=O)Nc2cccc3c2O[C@H](CN(C)Cc2ccc(Oc4ccccc4)cc2)[C@H](C)CN([C@@H](C)CO)C3=O)cc1	9.4 µM
C[C@@H]1CN([C@@H](C)CO)C(=O)Cc2cc(NC(=O)CCCN(C)C)ccc2O[C@H]1CN(C)Cc1ccc(Oc2ccccc2)cc1	71.1 µM
O=C(NCC[C@@H]1CC[C@H](NC(=O)Nc2cc(F)ccc2F)[C@H](CO)O1)Nc1ccc(Cl)cc1	> 240 µM (inactive)
C[C@H]1CN([C@@H](C)CO)C(=O)c2ccccc2-c2ccccc2CO[C@@H]1CN(C)Cc1ccccc1C(F)(F)F	13.6 µM
C[C@@H]1CN([C@@H](C)CO)C(=O)c2ccccc2-c2ccccc2CO[C@H]1CN(C)Cc1ccccc1C(F)(F)F	19.5 µM
C[C@@H]1CN([C@@H](C)CO)C(=O)c2cccc(NC(=O)Nc3ccc(C(F)(F)F)cc3)c2O[C@@H]1CN(C)Cc1ccccc1	2.69 µM
Cc1cc(C(=O)Nc2cccc3c2O[C@@H](CN(C)Cc2ccc(-c4ccccc4)cc2)[C@H](C)CN([C@@H](C)CO)C3=O)n(C)n1	17.5 µM
CN(C)CC(=O)N1[C@H](C#N)[C@H](c2ccc(C#CC3CCCCC3)cc2)[C@@H]1CO	65.2 µM
CO[C@H](CN(C)S(=O)(=O)c1cn(C)cn1)[C@@H](C)CN(C(=O)Nc1ccc(C(F)(F)F)cc1)[C@H](C)CO	12.6 µM
COc1ccc(S(=O)(=O)Nc2cccc3c2O[C@H](CN(C)Cc2ccc(-c4ccccc4)cc2)[C@H](C)CN([C@@H](C)CO)C3=O)cc1	54.2 µM
O=C(NCC[C@H]1CC[C@H](NS(=O)(=O)c2ccc(F)cc2)[C@@H](CO)O1)Nc1ccc(Cl)cc1	26.6 µM
CO[C@@H]1CN(C)C(=O)c2ccc(NC(=O)c3ccc(-c4ccccc4)cc3)cc2OC[C@@H](C)NC[C@@H]1C	62.8 µM
CO[C@@H](CN(C)C(=O)C1CCOCC1)[C@@H](C)CN(C(=O)Nc1ccc(C(F)(F)F)cc1)[C@@H](C)CO	38.8 µM
COc1ccc(C#Cc2cnc3c(c2)C(=O)N([C@@H](C)CO)C[C@@H](C)[C@H](CN(C)CC2CCCC2)O3)cc1	188 µM
CO[C@H]1CN(C)C(=O)c2ccc(NC(=O)Nc3ccc(Cl)c(Cl)c3)cc2OC[C@H](C)NC[C@H]1C	14.9 µM and 8.28 µM
Cc1ccc(F)cc1S(=O)(=O)N[C@@H]1CCN(Cc2ccc(CC(C)C)cc2)C1	14.3 µM

SMILES	IC50
COc1ccc(NC(=O)Nc2cccc3c2O[C@H](CN(C)Cc2ccc(Oc4ccccc4)cc2)[C@H](C)CN([C@@H](C)CO)C3=O)cc1	2.47 µM and 0.531 µM and 0.465 µM
CO[C@H]1CN(C)C(=O)c2ccc(NC(=O)Nc3ccc(Cl)c(Cl)c3)cc2OC[C@H](C)NC[C@@H]1C	37.6 µM
C[C@H]1CN([C@@H](C)CO)S(=O)(=O)c2ccc(C#CCC3CCCC3)cc2O[C@H]1CN(C)C	70.9 µM
CO[C@@H](CN(C)C(=O)C1CC1)[C@H](C)CN(C(=O)Nc1ccc(C(F)(F)F)cc1)[C@@H](C)CO	6.58 µM
C[C@H]1CN([C@@H](C)CO)S(=O)(=O)c2ccc(C#CCC3CCCC3)cc2O[C@@H]1CN(C)C	72.5 µM
CCS(=O)(=O)N1[C@H](CO)[C@H](c2ccc(C#CCC3CCCC3)cc2)[C@@H]1C#N	80.2 µM
COc1ccc(NC(=O)Nc2cccc3c2O[C@H](CN(C)Cc2ccc(C(F)(F)F)cc2)[C@H](C)CN([C@@H](C)CO)C3=O)cc1	25.6 µM
CNC[C@H]1Oc2c(NC(=O)Nc3ccc(C(F)(F)F)cc3)cccc2C(=O)N([C@@H](C)CO)C[C@H]1C	36.7 µM
COc1ccc(CN(C)C[C@@H]2OCCCC[C@H](C)Oc3ccc(NC(=O)Nc4cccc5ccccc45)cc3C(=O)N([C@H](C)CO)C[C@H]2C)cc1	87.9 µM
C[C@@H]1CN([C@@H](C)CO)S(=O)(=O)c2ccc(/C=C/c3ccccc3)cc2O[C@@H]1CN(C)Cc1ccc(C(=O)O)cc1	> 240 µM (inactive)
CO[C@H]1CN(C)C(=O)c2cc(NC(=O)Nc3ccc(Cl)c(Cl)c3)ccc2OC[C@H](C)NC[C@@H]1C	15.1 µM and 73 µM
C[C@@H]1CN([C@@H](C)CO)C(=O)c2cccc(NC(=O)Nc3ccc(C(F)(F)F)cc3)c2O[C@@H]1CN(C)C(=O)Nc1ccc(F)cc1	13.9 µM and > 240 µM (inactive)
COc1ccc(S(=O)(=O)N(C)C[C@H]2Oc3ccc(NC(=O)Nc4ccc(C(F)(F)F)cc4)cc3C(=O)N([C@@H](C)CO)C[C@@H]2C)cc1	51.2 µM
CO[C@@H]1CN(C)C(=O)c2cc(NC(=O)Nc3ccc(Cl)c(Cl)c3)ccc2OC[C@H](C)NC[C@@H]1C	17.8 µM and 12.5 µM
N#C[C@H]1[C@@H](c2ccc(C#Cc3ccccc3F)cc2)[C@@H](CO)N1C(=O)C1CCCCC1	157 µM
CNC[C@H]1Oc2cc(C#CC3CCCCC3)ccc2S(=O)(=O)N([C@H](C)CO)C[C@@H]1C	63.8 µM
O=C(C[C@@H]1CC[C@H]2[C@@H](COC[C@H](O)CN2S(=O)(=O)c2ccccc2)O1)NCC1CCCCC1	35.1 µM
C[C@@H]1CN([C@@H](C)CO)C(=O)Cc2cc(NC(=O)CCCN(C)C)ccc2O[C@H]1CN(C)Cc1ccc(-c2ccccc2)cc1	31.4 µM
C[C@@H]1CN([C@H](C)CO)C(=O)c2cc(NC(=O)Nc3cccc4ccccc34)ccc2O[C@@H](C)CCCCO[C@H]1CN(C)Cc1ccccc1	68.4 µM
C[C@@H]1CN([C@@H](C)CO)C(=O)c2cc(NC(=O)Nc3ccc(C(F)(F)F)cc3)ccc2O[C@@H](C)CCCCO[C@H]1CN(C)CC1CCCCC1	10.9 µM and 2.15 µM
C[C@@H]1CN([C@@H](C)CO)S(=O)(=O)c2ccc(/C=C/c3ccccc3)cc2O[C@H]1CN(C)Cc1ccc(C(=O)O)cc1	3.3 µM
C[C@@H]1CN([C@H](C)CO)S(=O)(=O)c2ccc(C#CCC3CCCC3)cc2O[C@H]1CN(C)C	69.3 µM
C[C@@H]1CN([C@H](C)CO)S(=O)(=O)c2ccc(/C=C/c3ccccc3)cc2O[C@@H]1CN(C)Cc1ccc(C(=O)O)cc1	153 µM
CO[C@H](CN(C)C(=O)C1CCOCC1)[C@H](C)CN(C(=O)Nc1ccc(C(F)(F)F)cc1)[C@@H](C)CO	21.4 µM
C[C@@H]1CCCCO[C@H](CN(C)CC2CCCCC2)[C@H](C)CN([C@H](C)CO)C(=O)c2cc(NC(=O)Nc3ccc(C(F)(F)F)cc3)ccc2O1	5.06 µM and 44.8 µM and 31.8 µM
